The text below walks through data of patent US20210238162A1, “CHEMICAL COMPOUNDS” (GlaxoSmithKline Intellectual Property Development Limited, priority 2015, published 2021).

Where a name gives a salt, the structure may show the parent alone. Read-outs that look alike come from different tables or passages of the source.

The assay addresses T1, haematopoietic prostaglandin D synthase (H-PGDS) (Homo sapiens, UniProt O60760).
T1 construct: Full length human H-PGDS cDNA (Invitrogen Ultimate ORF IOH13026) was amplified by PCR; made in house; host or cells: E. coli BL21 (DE3*), vector pET22b+
Nature of the assay: H-PGDS RapidFire High Throughput Mass Spectrometry Assay. Format: biochemical. The protocol: The H-PGDS RapidFire™ mass spectrometric assay monitors conversion of prostaglandin H2 (PGH2) to prostaglandin D2 (PGD2) by haematopoietic prostaglandin D synthase (H-PGDS). In the assay format described here, the substrate (PGH2) is formed in situ by the action of cyclooxygenase-2 on arachidonic acid. This first step is set up to be fast, and generates a burst of PGH2 at ˜10 μM. The PGH2 is then further converted to PGD2 by the H-PGDS enzyme. […] Plates are then read on the RapidFire™ high throughput solid phase extraction system (Agilent) which incorporates a solid phase extraction step coupled to a triple quadrupole mass spectrometer (AB SCIEX). Relative levels of PGD2 and PGF2α, which acts as a surrogate for substrate, are measured and a percent conversion calculated.
Full length human H-PGDS cDNA (Invitrogen Ultimate ORF IOH13026) was amplified by PCR with the addition of a 5′ 6-His tag and TEV protease cleavage site. The PCR product was digested with Ndel and Xhol and ligated into pET22b+ (Merck Novagen®). Expression was carried out in E. coli strain BL21 (DE3*) using auto-induction Overnight Express™ Instant TB medium (Merck Novagen®) supplemented with 1% glycerol. The culture was first grown at 37° C. and the temperature was reduced to 25° C. when OD600 reached 2.0. Cells were harvested by centrifugation after a further 18 hr. 10 g of E. coli cell pellet was suspended to a total volume of 80 mL in lysis buffer (20 mM Tris-Cl pH 7.5, 300 mM NaCl, 20 mM imidazole, 5 mM β-mercaptoethanol, 10% glycerol). 1 mg/mL protease inhibitors (Protease Inhibitor Cocktail Set Ill, Merck Calbiochem®) and 1 mg/mL lysozyme were added to the cell suspension. The suspension was then sonicated for 5 min (UltraSonic Processor VCX 750, Cole-Parmer Instrument Co.) with a micro probe (50% amplitude, 10 sec on/off) and then centrifuged at 100,000 g for 90 min (at 4° C.). The supernatant was loaded onto a Ni-NTA HiTrap column (5 mL, GE Heathcare, pre-equilibrated in lysis buffer). The column was washed with 10 column volumes of lysis buffer and eluted with lysis buffer containing 500 mM imidazole. The pooled protein peak fractions were concentrated using a 10 kDa centrifugal filter at 3500 g and 4° C. (Amicon Ultra-15 centrifugal filter unit with Ultracel-10 membrane from Millipore). Further purification of the concentrated protein was carried out using gel filtration chromatography on a HiLoad 26/600 Superdex 75 preparative grade column (GE Healthcare Life Sciences) using 50 mM Tris pH 7.5, 50 mM NaCl, 1 mM dithiothreitol, 1 mM MgCl2. Fractions containing the protein were pooled, concentrated as described above, and stored at −80° C.
The full length human COX-2 gene (accession number L15326) was amplified by PCR to generate an EcoRI-HindIII fragment containing an in-frame FLAG tag. This was subcloned into pFastBac 1 (Invitrogen). The COX2 FLAG plasmid was recombined into the baculovirus genome according to the BAC-to-BAC protocol described by Invitrogen. Transfection into Spodoptera frugiperda (Sf9) insect cells was performed using Cellfectin (Invitrogen), according to the manufacturer's protocol. […] Recombinant virus was added at a Multiplicity of Infection (MOI) of 5 and the culture was allowed to continue for 3 days. Cells were harvested using a continuous feed centrifuge run at 2500 g at a rate of approximately 2 L/min with cooling. The resultant cell slurry was re-centrifuged in pots (2500 g, 20 min, 4° C.) and the cell paste was stored at −80° C. […] The suspension was sonicated in 500 mL batches for 8×5 seconds at 10 u amplitude with the medium tip of an MSE probe sonicator and subsequently incubated at 4° C. for 90 min with gentle stirring. The lysate was centrifuged at 12000 rpm for 45 min at 4° C. in a Sorvall SLA1500 rotor. The supernatant (1400 mL) was added to 420 mL of 20 mM Tris-Cl pH 7.4, 150 mM NaCl, 0.1 mM EDTA to reduce the concentration of n-octyl-β-D-glucopyranoside to 1% w/v.

Setting [1] is: H-PGDS RapidFire MS assay, mean pIC50, read-out: Potency Range (mean pIC50) (converted).
The mark [2] stands for this setting: in at least one experimental run, read-out: H-PGDS pIC50 value (converted).

T1 sequence (O60760 whole entry): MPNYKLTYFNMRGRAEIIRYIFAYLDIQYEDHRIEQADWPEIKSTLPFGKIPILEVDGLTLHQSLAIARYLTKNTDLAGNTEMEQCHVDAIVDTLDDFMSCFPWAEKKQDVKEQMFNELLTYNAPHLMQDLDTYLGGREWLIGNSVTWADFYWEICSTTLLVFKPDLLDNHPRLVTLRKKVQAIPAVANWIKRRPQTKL

As to `CC(C)CN1CC[C@H](NC(=O)c2cnc3cc(OC(F)F)c(F)cc3c2)C1=O` [Example 50, (S)-7-(Difluoromethoxy)-6-fluoro-N-(1-isobutyl-2-oxopyrrolidin-3-yl)quinoline-3-carboxamide], the IC50 under setting [1] was 0.01 to 0.0794 µM.
As to `CC(O)[C@H]1CC[C@H](NC(=O)c2cnc3cc(OC(F)F)ccc3c2)CC1` (stereo partly drawn) [Example 13, 7-(Difluoromethoxy)-N-(trans-4-(-1-hydroxyethyl)cyclohexyl)quinoline-3-carboxamide], under setting [1], the IC50 was 0.01 to 0.0794 µM.
As to `N#Cc1cc2cc(C(=O)N[C@H]3CCNC3=O)cnc2cc1C1CC1` [Example 25, (S)-6-Cyano-7-cyclopropyl-N-(2-oxopyrrolidin-3-yl)quinoline-3-carboxamide hydrochloride], the IC50 under setting [1] was 0.01 to 0.0794 µM and the IC50 under setting [2] is 0.0251 µM.
Take `O=C(N[C@H]1CC[C@H](N2CC(F)C2)CC1)c1cnc2cc(OC(F)F)c(Cl)cc2c1` [Example 132, 6-Chloro-7-(difluoromethoxy)-N-(trans-4-(3-fluoroazetidin-1-yl)cyclohexyl)quinoline-3-carboxamide]: the IC50 under setting [1] was less than 0.01 µM.
The same measure, in the same setting: next, `Cc1c(OC(F)F)c(Cl)cc2cc(C(=O)N[C@H]3CC[C@H](C(C)(C)O)CC3)cnc12` [Example 229, 6-Chloro-7-(difluoromethoxy)-N-((trans)-4-(2-hydroxypropan-2-yl)cyclohexyl)-8-methylquinoline-3-carboxamide]: 0.01 to 0.0794 µM.
Consider `O=C(NC1CCC(N2CCOCC2)CC1)c1cnc2cc(OC(F)F)c(F)cc2c1` (centres unmarked) [Example 68, 7-(Difluoromethoxy)-6-fluoro-N-(4-morpholinocyclohexyl)quinoline-3-carboxamide trifluoroacetic Acid Salt], for which the IC50 under setting [1] is 0.01 to 0.0794 µM.
Consider `C[C@]1(O)CC[C@H](NC(=O)c2cnc3cc(OC(F)F)c(Cl)cc3c2)C1` (racemic) [Example 146, Racemic 6-Chloro-7-(difluoromethoxy)-N-((1S,3S)-3-hydroxy-3-methylcyclopentyl)quinoline-3-carboxamide], for which, under setting [1], the IC50 is 0.01 to 0.0794 µM.
Consider `O=C(N[C@H]1CC[C@H](N[C@@H](CO)C(F)(F)F)CC1)c1cnc2cc(OC(F)F)c(Cl)cc2c1` [Example 131, 6-Chloro-7-(difluoromethoxy)-N-(trans-4-(((S)-1,1,1-trifluoro-3-hydroxypropan-2-yl)amino)cyclohexyl)quinoline-3-carboxamide], for which the IC50 under setting [1] is less than 0.01 µM.
For the compound `CCOc1cc2ncc(C(=O)N[C@H]3CC[C@H](C(C)(C)O)CC3)cc2cc1F` [Example 178, 7-Ethoxy-6-fluoro-N-(trans-4-(2-hydroxypropan-2-yl)cyclohexyl)quinoline-3-carboxamide], under setting [1], the IC50 is 0.01 to 0.0794 µM.
`Cn1nnnc1N1CCC(NC(=O)c2cnc3cc(C4CC4)c(Cl)cc3c2)CC1` [Example 34, 6-Chloro-7-cyclopropyl-N-(1-(1-methyl-1H-tetrazol-5-yl)piperidin-4-yl)quinoline-3-carboxamide]: under setting [1], the IC50 is less than 0.01 µM.
`CC(C)(O)[C@H]1CC[C@H](NC(=O)c2cnc3c(Cl)c(OC(F)F)c(F)cc3c2)CC1` [Example 235, 8-Chloro-7-(difluoromethoxy)-6-fluoro-N-(trans-4-(2-hydroxypropan-2-yl)cyclohexyl)quinoline-3-carboxamide]: the IC50 under setting [1] is 0.01 to 0.0794 µM.
`O=C(N[C@H]1CC[C@H]([C@H](O)C(F)(F)F)CC1)c1cnc2cc(OC(F)F)ccc2c1` (single isomer, unassigned) [Example 21]: under setting [1], the IC50 was less than 0.01 µM.
As for `O=C(N[C@H]1CCN(CC2CC2)C1=O)c1cnc2cc(OC(F)F)c(F)cc2c1` [Example 53, (S)—N-(1-(Cyclopropylmethyl)-2-oxopyrrolidin-3-yl)-7-(difluoromethoxy)-6-fluoroquinoline-3-carboxamide], the IC50 under setting [1] was 0.01 to 0.0794 µM.
On the same count and under the same terms, next, `O=C(N[C@H]1CCC[C@H]1O)c1cnc2cc(OC(F)F)c(F)cc2c1` [Example 52, 7-(Difluoromethoxy)-6-fluoro-N-((1S,2R)-2-hydroxycyclopentyl)quinoline-3-carboxamide]: 0.1 to 1 µM; `C[C@H](N[C@H]1CC[C@H](NC(=O)c2cnc3cc(OC(F)F)c(F)cc3c2)CC1)C(F)F` [Example 70, 7-(Difluoromethoxy)-N-(trans-4-(((S)-1,1-difluoropropan-2-yl)amino)cyclohexyl)-6-fluoroquinoline-3-carboxamide]: less than 0.01 µM.
With `O=C(N[C@H]1CC[C@H]([C@@H](O)C(F)(F)F)CC1)c1cnc2cc(OC(F)F)ccc2c1` (single isomer, unassigned) [Example 20], the IC50 runs as follows: under setting [1], less than 0.01 µM; under setting [2], 0.00794 µM.
As for `CC(C)(O)[C@H]1CC[C@H](NC(=O)c2cnc3c(Cl)c(OC(F)F)ccc3c2)CC1` [Example 216, 8-Chloro-7-(difluoromethoxy)-N-((trans)-4-(2-hydroxypropan-2-yl)cyclohexyl)quinoline-3-carboxamide], the IC50 under setting [1] is 0.01 to 0.0794 µM.
With `Cn1nnnc1N1CCC(NC(=O)c2cnc3cc(C4CC4)ccc3c2)CC1` [Example 44, 7-Cyclopropyl-N-(1-(1-methyl-1H-tetrazol-5-yl)piperidin-4-yl)quinoline-3-carboxamide], the IC50 under setting [1] was less than 0.01 µM.
In the case of `CCOC(=O)c1cnc(N[C@H]2C[C@H](NC(=O)c3cnc4cc(OC(F)F)c(F)cc4c3)C2)o1` [Example 83, Ethyl 2-((trans-3-(7-(difluoromethoxy)-6-fluoroquinoline-3-carboxamido)cyclobutyl)amino)oxazole-5-carboxylate], the IC50 under setting [1] is 0.01 to 0.0794 µM.
As for `C=Cc1cc2ncc(C(=O)N[C@H]3CC[C@H](C(C)(C)O)CC3)cc2cc1Cl` [Example 225, 6-Chloro-N-((trans)-4-(2-hydroxypropan-2-yl)cyclohexyl)-7-vinylquinoline-3-carboxamide], the IC50 under setting [1] was 0.01 to 0.0794 µM.
As for `CC(O)(CO[C@H]1CC[C@H](NC(=O)c2cnc3cc(OC(F)F)ccc3c2)CC1)C(F)(F)F` (stereo partly drawn) [Example 19, 7-(Difluoromethoxy)-N-(trans-4-(3,3,3-trifluoro-2-hydroxy-2-methylpropoxy)cyclohexyl)quinoline-3-carboxamide], the IC50 under setting [1] was 0.01 to 0.0794 µM.
`C[C@@H](N[C@H]1CC[C@H](NC(=O)c2cnc3cc(OC(F)F)c(Br)cc3c2)CC1)C(F)F` [Example 158, 6-Bromo-7-(difluoromethoxy)-N-(trans-4-(((R)-1,1-difluoropropan-2-yl)amino)cyclohexyl)quinoline-3-carboxamide]: under setting [1], the IC50 is less than 0.01 µM.
Take `O=C(N[C@H]1CC[C@H](N[C@H](CO)C(F)(F)F)CC1)c1cnc2cc(OC(F)F)c(F)cc2c1` [Example 77, 7-(Difluoromethoxy)-6-fluoro-N-(trans-4-(((R)-1,1,1-trifluoro-3-hydroxypropan-2-yl)amino)cyclohexyl)quinoline-3-carboxamide]: the IC50 under setting [1] was 0.01 to 0.0794 µM.
Same read-out and setting: next, `CC(C)(O)[C@@H]1CC[C@@H](NC(=O)c2cnc3cc(OC(F)F)ccc3c2)CO1` (racemic) [Example 22, Racemic 7-(Difluoromethoxy)-N-((3s,6r)-6-(2-hydroxypropan-2-yl)tetrahydro-2H-pyran-3-yl)quinoline-3-carboxamide]: 0.01 to 0.0794 µM.
